Our source for the MIC values is ChEMBL document CHEMBL1122581, “Antiviral activity of C-5 substituted tubercidin analogues” (1984).

The structures appear in SMILES notation. In brackets after ≈: the same amount, converted by molar mass.

The subject of one assay is Vaccinia virus. Briefly: Compound was tested for the concentration required to reduce vaccinia virus induced cytopathogenicity by 50% in primary rabbit kidney cell cultures. The class given is functional. The note with it: Orthopoxvirus vaccinia.
With `Nc1ncnc2c1ncn2C[C@@H](O)CO`, the MIC was 70 µg/mL (≈ 335 µM).

In a further assay the test system is Vaccinia virus. Briefly: Concentration required to reduce vaccinia virus induced cytopathogenicity by 50% in primary rabbit kidney cell cultures. It counts as functional. The conditions noted are these: Orthopoxvirus vaccinia. A general note: Protection from cytopathic effect is a common read-out in antiviral testing.
On to `Nc1ncnc2c1cc(Br)n2C1O[C@H](CO)[C@@H](O)[C@H]1O` (some centres undefined), for which the MIC stood at 300 µg/mL (≈ 869 µM). The same measure, in the same setting: in the case of `Nc1ncnc2c1c(Br)c(Br)n2C1O[C@H](CO)[C@@H](O)[C@H]1O` (some centres undefined) it was 20 µg/mL (≈ 47.2 µM); in that of `Nc1ncnc2c1c(CCCO)cn2C1O[C@H](CO)[C@@H](O)[C@H]1O` (some centres undefined), 2 µg/mL (≈ 6.17 µM); in that of `Nc1ncnc2c1c(/C=C/Br)cn2C1O[C@H](CO)[C@@H](O)[C@H]1O` (some centres undefined), greater than 1 µg/mL.

`Nc1ncnc2c1c(Cl)c(Cl)n2C1O[C@H](CO)[C@@H](O)[C@H]1O` (some centres undefined): the MIC was greater than 40 µg/mL. Take `N#C/C=C/c1cn(C2O[C@H](CO)[C@@H](O)[C@H]2O)c2ncnc(N)c12` (some centres undefined): the MIC worked out at 0.7 µg/mL (≈ 2.21 µM). The same measure, in the same setting: in the case of `CC(O)c1cn(C2O[C@H](CO)[C@@H](O)[C@H]2O)c2ncnc(N)c12` (some centres undefined) it was 0.7 µg/mL (≈ 2.26 µM); in that of `COC(C)c1cn(C2O[C@H](CO)[C@@H](O)[C@H]2O)c2ncnc(N)c12` (some centres undefined), 0.7 µg/mL (≈ 2.16 µM); in that of `C/C=C/Cc1cn(C2O[C@H](CO)[C@@H](O)[C@H]2O)c2ncnc(N)c12` (some centres undefined), 0.7 µg/mL (≈ 2.19 µM).

Turning to `CCCCc1cn(C2O[C@H](CO)[C@@H](O)[C@H]2O)c2ncnc(N)c12` (some centres undefined), the MIC was greater than 40 µg/mL. Turning to `Nc1ncnc2c1c(Br)cn2[C@@H]1O[C@H](CO)[C@@H](O)[C@H]1O`, the MIC turned out to be 0.2 µg/mL (≈ 0.579 µM). Consider `Nc1nccc2c1ncn2[C@@H]1C[C@H](CO)[C@H](O)C1O` (some centres undefined), for which the MIC amounted to 0.1 µg/mL (≈ 0.378 µM). Compound `Nc1ncnc2c1c(Cl)cn2[C@@H]1O[C@H](CO)[C@@H](O)[C@H]1O` had an MIC greater than 1 µg/mL. Regarding `Nc1ncnc2c1c(I)cn2[C@@H]1O[C@H](CO)[C@@H](O)[C@H]1O` [IODOTUBERCIDIN], the MIC amounted to 0.07 µg/mL (≈ 0.179 µM).

On to `NC(=O)c1ncn([C@@H]2O[C@H](CO)[C@@H](O)[C@H]2O)n1` [RIBAVIRIN], for which the MIC came to 10 µg/mL (≈ 40.9 µM). For the compound `NC(=O)c1cn([C@@H]2O[C@H](CO)[C@@H](O)[C@H]2O)c2ncnc(N)c12` [SANGIVAMYCIN], the MIC was found to be 0.02 µg/mL (≈ 0.0647 µM). For `N#Cc1cn([C@@H]2O[C@H](CO)[C@@H](O)[C@H]2O)c2ncnc(N)c12` [TOYOCAMYCIN], the MIC is greater than 0.01 µg/mL. Consider `Nc1ncnc2c1ccn2[C@@H]1O[C@H](CO)[C@@H](O)[C@H]1O` [TUBERCIDIN], for which the MIC was 0.02 µg/mL (≈ 0.0751 µM).
